Common to all, as to assay: NCI anticancer screen, dose series, 48 h
Test [1] relates to SK-MEL-28 melanoma.
For test [2], the system named is SW-620 colon.
Test [3] concerns HS 578T breast.
Test [4] concerns DU-145 prostate.
Test [5] deals with MDA-MB-435.
Test [6] has as its system MCF7 breast.
The subject of test [7] is RPMI-8226 leukemia.
Test [8] deals with MOLT-4 leukemia.
Test [9] has as its system MALME-3M melanoma.
In test [10] the test system is RXF 393 renal.

Molecules are shown by their SMILES.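 Exposure lasted 48 hours, with cells grown in 96-well plates and compounds tested at five concentrations. GI50 is the concentration that inhibits growth by half. Definition used: TGI = concentration required for complete inhibition of growth.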 Bounds are passed on as bounds.

On to `OB1OCc2ccccc21`, for which the TGI was 63 µM in test [1]; greater than 100 µM in test [2]; greater than 100 µM in test [3]; greater than 100 µM in [4]; greater than 100 µM in test [5]; 82.1 µM in [6]. Further, the TGI in test [7] was 45.9 µM; in [8], greater than 100 µM; in [9], greater than 100 µM.

Take `COC(=O)c1ccc2[nH]c3c(c2c1)CC(=O)Nc1ccccc1-3`: the TGI in test [1], in [2], in test [3], in test [4], in test [5] and in test [6] was greater than 100 µM in each case. For the same compound, the TGI in [7] and in [9] was greater than 100 µM throughout.

Take `C[N+](C)(C)CC(=O)N/N=C(\C(=O)Nc1ccc(Cl)cc1)C1C(=O)N(c2ccccc2)N=C1N` (centres undefined): the TGI in test [1], in test [2], in [7], in test [10], in test [8] and in [9] was greater than 100 µM throughout.

On to `CN(C)/C=C/c1ccnc2c1C(=O)c1ccccc1C2=O`, for which the TGI in test [1] is 5.95 µM; in test [2] it was 21.5 µM; in test [3], 7.06 µM; in [4], 3.41 µM; in [6] it was greater than 44.7 µM; in test [7], 39.3 µM. The TGI was greater than 100 µM in [10], greater than 64.1 µM in test [8] and 5.09 µM in [9].

Turning to `CC(=O)NC(Cc1ccccc1)C(=S)N1CCCC1` (centres undefined), the TGI in test [1], in test [2], in test [7], in [10], in test [8] and in test [9] was greater than 100 µM throughout.

Take `CN(C)CCCN1c2ccc3ccccc3c2Sc2cccc(Cl)c21`: the TGI is 4.3 µM in [1]; 4.33 µM in test [2]; 21.7 µM in test [3]; 14.8 µM in [4]; 3.88 µM in test [5]; 3.85 µM in [7]. For the same compound, the values for the TGI in test [10], in [8] and in [9] were 10.4 µM, 4.75 µM and 23 µM, respectively.

Consider `Nc1nc(NC(=O)C2=NS(=O)(=O)c3cc(S(N)(=O)=O)c(Cl)cc3N2)n[nH]1`, for which the TGI in test [1], in test [2], in test [7], in test [10], in test [8] and in [9] was greater than 100 µM throughout.

Consider `CC1=C2CC3=C(C)C(=O)O[C@H]3C[C@@H](C)[C@@H]2CC1`, for which the TGI in [1], in test [2], in test [3], in test [5], in test [7] and in [8] was greater than 100 µM in each case. The compound also returned a TGI in test [9] greater than 100 µM.

As to `COc1cc(/C=C/C(=O)C(C)(C)C)cc(OC)c1OC`, the TGI in test [1] is greater than 100 µM; in test [2], 81.2 µM; in test [7], greater than 100 µM; in [10], 79.1 µM; in [8], greater than 100 µM; in test [9], greater than 100 µM.

Consider `CC1=CC(=O)C[C@]2(C)[C@@H](O)CC(C(C)CO)C[C@@H]12` (some centres undefined), for which the TGI in test [1], in test [2], in [4], in test [5], in test [6] and in [10] was greater than 100 µM in each case. Also, in test [8], the TGI is greater than 100 µM.

On to `CC(C)CCC[C@@H](C)[C@H]1CC[C@H]2[C@@H]3CC=C4CC(OCCCCN(O)CCCSC5OC(CO)C(O)C(O)C5O)CC[C@]4(C)[C@H]3CC[C@]12C` (some centres undefined), for which the TGI in test [1] was greater than 100 µM; in test [2], 49.4 µM; in [7], greater than 100 µM; in test [10] it was greater than 100 µM; in test [8], greater than 100 µM.

On to `O=C(CCc1nnc2s/c(=C\c3ccc(Cl)cc3Cl)c(=O)n12)Nc1cc(Cl)c(Cl)cc1Cl`, for which the GI50 in [1], in test [2], in test [7], in [8] and in test [9] was greater than 100 µM each time. Besides, the TGI in test [1], in test [2], in test [7], in test [8] and in test [9] was greater than 100 µM throughout.

With `C[Si](C)(C)C1=C2C(=O)c3ccccc3C(=O)C2=C([Si](C)(C)C)[C@@H]2CCCC[C@H]12`, the TGI in test [1], in test [2], in test [4], in test [5], in test [6] and in test [7] was greater than 100 µM throughout. Also, the TGI in [10], in test [8] and in [9] was greater than 100 µM throughout.

On to `c1ccc(C2(c3cc4ccccc4[nH]3)OCCO2)cc1`, for which the TGI in test [1], in [2], in [4], in test [5], in test [6] and in test [7] was greater than 100 µM each time. Moreover, the results for the TGI in test [10] and in test [8] were greater than 100 µM and 49.4 µM, respectively.

Regarding `COc1cc2c(oc(=O)c3c4oc([Si](C)(C)C)cc4cc(OC)c23)c2cccc(O)c12`, the TGI in test [1], in test [2], in test [7], in test [10], in test [8] and in test [9] was greater than 100 µM in each case.

Take `O=C(N/N=C/c1cc(-c2ccccc2Cl)c(-c2ccccc2Cl)o1)c1ccncc1`: the TGI in test [1] is greater than 100 µM; in [2], greater than 100 µM; in test [7], 65.9 µM; in [10], greater than 100 µM; in test [9] it was greater than 100 µM.

As for `O=C1CSC(c2ccc(Cl)cc2)N1c1ccc(-n2c(-c3ccccc3)nc3ccccc3c2=O)cc1` (centres undefined), the TGI in [1], in [2], in test [3], in test [5], in test [6] and in [7] was greater than 100 µM in each case. Besides, the TGI in test [8] and in test [9] was greater than 100 µM throughout.

(Values after PubChem BioAssay (NCI).)
